Where two headings read alike, the source gives them in different places.
What was measured:
SHMT1 [1] = biological target: T1, SHMT1 (Homo sapiens, UniProt P34896); assay: TMABADH-coupled spectrophotometric aldolase assay (Km); 1H NMR; type: biochemical
T1 sequence (P34896 2-483): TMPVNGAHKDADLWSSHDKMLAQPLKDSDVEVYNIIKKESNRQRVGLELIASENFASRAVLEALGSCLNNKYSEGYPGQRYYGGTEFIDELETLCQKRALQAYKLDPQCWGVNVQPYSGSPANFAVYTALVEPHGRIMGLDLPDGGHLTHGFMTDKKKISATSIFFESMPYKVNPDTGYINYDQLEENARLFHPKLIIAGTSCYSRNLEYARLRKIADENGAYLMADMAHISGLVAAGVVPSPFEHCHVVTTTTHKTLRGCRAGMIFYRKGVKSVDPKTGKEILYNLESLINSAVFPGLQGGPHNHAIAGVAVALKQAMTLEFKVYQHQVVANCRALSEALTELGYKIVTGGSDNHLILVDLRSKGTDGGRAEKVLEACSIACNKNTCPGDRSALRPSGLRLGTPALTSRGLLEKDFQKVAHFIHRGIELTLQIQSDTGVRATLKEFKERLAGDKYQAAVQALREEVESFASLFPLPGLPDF

SHMT2 [2] = biological target: T2, SHMT2 (Homo sapiens, UniProt P34897); assay: TMABADH-coupled spectrophotometric aldolase assay (Km); type: biochemical
T2 sequence (P34897 30-504): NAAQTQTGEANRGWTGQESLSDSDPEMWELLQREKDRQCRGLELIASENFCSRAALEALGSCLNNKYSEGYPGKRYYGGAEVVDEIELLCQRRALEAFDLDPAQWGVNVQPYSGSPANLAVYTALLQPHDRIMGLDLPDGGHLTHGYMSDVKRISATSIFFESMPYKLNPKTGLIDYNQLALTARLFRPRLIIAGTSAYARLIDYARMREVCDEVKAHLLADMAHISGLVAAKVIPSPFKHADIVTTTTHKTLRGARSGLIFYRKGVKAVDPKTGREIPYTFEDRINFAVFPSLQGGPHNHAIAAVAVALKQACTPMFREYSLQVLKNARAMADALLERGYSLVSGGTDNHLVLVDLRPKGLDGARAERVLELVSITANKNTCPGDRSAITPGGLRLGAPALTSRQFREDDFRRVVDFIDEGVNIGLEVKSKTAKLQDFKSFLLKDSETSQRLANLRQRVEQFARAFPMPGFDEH

[3] = biological target: T3, low-specificity threonine aldolase eTA (Escherichia coli, UniProt P75823); assay: TMABADH-coupled spectrophotometric aldolase assay; type: biochemical
T3 construct: gene ltaE
T3 sequence (P75823 whole entry): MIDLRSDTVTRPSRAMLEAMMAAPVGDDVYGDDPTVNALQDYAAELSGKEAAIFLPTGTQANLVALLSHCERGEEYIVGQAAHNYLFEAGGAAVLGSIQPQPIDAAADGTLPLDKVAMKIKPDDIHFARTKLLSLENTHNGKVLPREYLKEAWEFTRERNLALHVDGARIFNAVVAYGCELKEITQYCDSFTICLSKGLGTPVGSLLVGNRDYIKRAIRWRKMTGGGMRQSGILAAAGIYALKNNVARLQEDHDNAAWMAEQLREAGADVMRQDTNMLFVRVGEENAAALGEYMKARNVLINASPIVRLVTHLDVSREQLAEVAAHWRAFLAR

KYAT1 = biological target: T4, KYAT1 (Homo sapiens, UniProt Q16773); assay: spectrophotometric kynurenine aminotransferase assay at […] nm, Lineweaver-Burk; type: biochemical
T4 sequence (Q16773 1-422): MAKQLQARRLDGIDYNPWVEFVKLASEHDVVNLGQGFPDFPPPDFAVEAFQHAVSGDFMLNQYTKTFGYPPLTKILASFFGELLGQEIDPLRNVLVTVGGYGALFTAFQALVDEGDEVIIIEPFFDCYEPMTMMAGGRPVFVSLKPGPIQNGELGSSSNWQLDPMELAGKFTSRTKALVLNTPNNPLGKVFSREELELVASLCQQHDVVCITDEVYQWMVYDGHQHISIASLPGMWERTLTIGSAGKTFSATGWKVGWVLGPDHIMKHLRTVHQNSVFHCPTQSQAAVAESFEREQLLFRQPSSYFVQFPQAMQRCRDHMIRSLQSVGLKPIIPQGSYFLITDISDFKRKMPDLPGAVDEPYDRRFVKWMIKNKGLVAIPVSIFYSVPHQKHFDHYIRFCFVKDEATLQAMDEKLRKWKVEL

SHMT2 [4] = biological target: T2, SHMT2
SHMT2 [5] = biological target: T2, SHMT2; set-up: Threonine cleavage coupled to alcohol dehydrogenase, NADH depletion at 340 nm, Michaelis-Menten fit; conditions: substrate
Description: (§1) The HTMLA activity was measured by coupling the aldol cleavage of HTML with the oxidation of TMABA by NAD^+ catalyzed by TMABADH. The rate of the reaction was calculated from the rate of appearance in absorbance at 340 nm, due to the formation of NADH, using a value of ε340 = 6220 cm^−1·M^−1. The reaction was carried out using 1 µM SHMT1 or 4 µM SHMT2 in 50 mM potassium phosphate, pH 7.5, containing 1 mM EDTA, 5 mM 2-mercaptoethanol, 0.5 mM NAD^+ and 8 µM TMABADH, at 37 °C. For Tha1 (1 µM) and eTA (0.1 µM) we kept the same conditions but a different temperature (30 °C) due to their low stability at 37 °C. The rate of L-allo-threonine and threonine cleavage was measured by coupling the reaction with reduction of the product acetaldehyde by NADH and alcohol dehydrogenase. With L-allo-threonine as substrate were reduced the amount of SHMT enzymes, 0.15 µM for SHMT1 and 1 µM for SHMT2.The rate of the reaction was calculated from the rate of disappearance in absorbance at 340 nm, due to NADH depletion.

SHMT1 [6] = biological target: T1, SHMT1; set-up: Threonine cleavage coupled to alcohol dehydrogenase, NADH depletion at 340 nm, Michaelis-Menten fit; conditions: substrate
Description: as §1

[7] = biological target: T5, threonine aldolase (Tha1) (Mus musculus, UniProt Q6XPS7)
T5 sequence (Q6XPS7 41-400): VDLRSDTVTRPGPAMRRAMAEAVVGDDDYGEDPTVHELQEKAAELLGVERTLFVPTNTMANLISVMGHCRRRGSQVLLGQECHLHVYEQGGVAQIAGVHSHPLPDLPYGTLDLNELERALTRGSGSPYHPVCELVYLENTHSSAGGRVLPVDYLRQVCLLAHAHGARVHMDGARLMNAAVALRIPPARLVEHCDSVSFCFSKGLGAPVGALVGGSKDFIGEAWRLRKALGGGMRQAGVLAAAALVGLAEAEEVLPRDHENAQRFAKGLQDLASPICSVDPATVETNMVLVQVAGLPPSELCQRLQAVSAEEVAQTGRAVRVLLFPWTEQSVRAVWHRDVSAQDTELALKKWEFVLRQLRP

SHMT1 [8] = biological target: T1, SHMT1
[9] = biological target: T5, threonine aldolase (Tha1); assay: X-ray crystal structure (monoclinic C2 form); type: binding; set-up: without the first 40 amino acids (predicted mitochondrial signal)
[10] = substrate: C[C@H](O)[C@H](N)C(=O)O; assay: purified protein, by the assay type; set-up: Threonine cleavage coupled to alcohol dehydrogenase, NADH depletion at 340 nm, Michaelis-Menten fit; conditions: pH 7.5
Description: as §1

[11] = substrate: C[C@@H](O)[C@H](N)C(=O)O; assay: purified protein, by the assay type; set-up: Threonine cleavage coupled to alcohol dehydrogenase, NADH depletion at 340 nm, Michaelis-Menten fit; conditions: pH 7.5
Description: as §1

[12] = substrate: C[N+](C)(C)CCC[C@H](O)[C@H](N)C(=O)[O-]; assay: TMABADH-coupled spectrophotometric aldolase assay (Km); 1H NMR; type: biochemical, Mus musculus; conditions: PLP
[13] = biological target: the molecule itself; assay: crystal structure; sitting drop at 18 °C, 0.2 M sodium nitrate, 0.1 M Bis-Tris propane pH 8.5, 20% w/v PEG 3350; space groups F222 (one molecule in the ASU) and C2 (two molecules in the ASU); tetramer formed by crystallographic symmetries

For `C[N+](C)(C)CCC[C@H](O)[C@H](N)C(=O)[O-]` [HTML], the Km (SHMT1 [1]) was 3.79 mM, the Km (SHMT2 [2]) was 0.8 mM and the “TMABADH-coupled spectrophotometric aldolase assay” value [3] was “Characterization of its catalytic efficiency for L-allo-threonine and HTML, showed high activity with both substrates”. For the same molecule, the Ki (KYAT1) was 4 mM.

For `C[C@H](O)[C@H](N)C(=O)O` [L-allo-threonine], the “alcohol dehydrogenase-coupled spectrophotometric aldolase assay (kcat/Km)” value (SHMT2 [4]) was ~ 10^2 s^-1 M^-1, the Km (SHMT2 [5]) was 1.34 ± 0.115 mM and the Km (SHMT1 [6]) was 0.226 ± 0.017 mM. The “alcohol dehydrogenase-coupled spectrophotometric aldolase assay (kcat/Km)” value [7] was ~ 10^2 s^-1 M^-1 and the “alcohol dehydrogenase-coupled spectrophotometric aldolase assay (kcat/Km)” value (SHMT1 [8]) was ~ 10^4 s^-1 M^-1.

For `C[C@@H](O)[C@H](N)C(=O)O` [L-threonine], the Km (SHMT2 [5]) was 41.2 ± 3.43 mM, the Km (SHMT1 [6]) was 36.5 ± 2.48 mM and the “alcohol dehydrogenase-coupled spectrophotometric aldolase assay (kcat/Km)” value [7] was ~ 10^1 s^-1 M^-1.

For `Cc1ncc(COP(=O)(O)O)c(C=O)c1O` [PLP], the “X-ray crystal structure (monoclinic C2 form)” value [9] was “In Tha1, the PLP cofactor, bound to Lys242, is stabilized in the active site by a network of hydrogen bonds”.

B1: threonine aldolase (Tha1) (Mus musculus) (protein)
chain: VDLRSDTVTRPGPAMRRAMAEAVVGDDDYGEDPTVHELQEKAAELLGVERTLFVPTNTMANLISVMGHCRRRGSQVLLGQECHLHVYEQGGVAQIAGVHSHPLPDLPYGTLDLNELERALTRGSGSPYHPVCELVYLENTHSSAGGRVLPVDYLRQVCLLAHAHGARVHMDGARLMNAAVALRIPPARLVEHCDSVSFCFSKGLGAPVGALVGGSKDFIGEAWRLRKALGGGMRQAGVLAAAALVGLAEAEEVLPRDHENAQRFAKGLQDLASPICSVDPATVETNMVLVQVAGLPPSELCQRLQAVSAEEVAQTGRAVRVLLFPWTEQSVRAVWHRDVSAQDTELALKKWEFVLRQLRP
notes: without the first 40 amino acids (predicted mitochondrial signal)
B1 showed a Km [10] of 8.236 ± 0.86 mM, a kcat/Km [10] of 238 ± 26.2 M⁻¹ s⁻¹ and a Km [11] of 37.531 ± 10.873 mM. It also gave a Km [12] of 0.169 mM.

B2: mouse threonine aldolase (Tha1), truncated form without the first 40 amino acids (enzyme, UniProt Q6XPS7 41-400, looked up)
chain: VDLRSDTVTRPGPAMRRAMAEAVVGDDDYGEDPTVHELQEKAAELLGVERTLFVPTNTMANLISVMGHCRRRGSQVLLGQECHLHVYEQGGVAQIAGVHSHPLPDLPYGTLDLNELERALTRGSGSPYHPVCELVYLENTHSSAGGRVLPVDYLRQVCLLAHAHGARVHMDGARLMNAAVALRIPPARLVEHCDSVSFCFSKGLGAPVGALVGGSKDFIGEAWRLRKALGGGMRQAGVLAAAALVGLAEAEEVLPRDHENAQRFAKGLQDLASPICSVDPATVETNMVLVQVAGLPPSELCQRLQAVSAEEVAQTGRAVRVLLFPWTEQSVRAVWHRDVSAQDTELALKKWEFVLRQLRP
modifications: PLP cofactor bound to Lys242 (visible only in the monoclinic structure)
notes: Threonine aldolase Tha1, Mus musculus, CDS NM_027919.4 without the first 40 amino acids (predicted mitochondrial signal); The plasmid was bought from GenScript; also called Htmla; hydroxytrimethyllysine aldolase; source: E. coli BL21 with pGRO7 (GroEL/GroES co-expressed), purified (HisTrap, Superdex 200 size exclusion); not shown: His tag (from the vector pET-28b)
B2 was tested, and the “stoichiometry N” value [13] was 4.

Source: article PMC11016064, “One substrate many enzymes virtual screening uncovers missing genes of carnitine biosynthesis in human and mouse” (Nature Communications, 2024)
